The target of one test is CDK7/CycH/MNAT1 (Homo sapiens (Human), UniProt P50613). Description: Biochemical assay for CDK7 (TR-FRET kinase assay). The following applies: for inhibition at 10 µM: read-out: % inhibition @ 10 μM; for IC50: read-out: IC50. An outline of the steps: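 CDK7/CycH/MNAT1 (5 nM) was preincubated with compound for 60 min at room temperature, then reacted for 60 min with 100 nM ULight-MBP and 1 mM ATP in 1% DMSO. Irreversibility was probed with 20, 60 and 180 min preincubations.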

Test [1] deals with RNA polymerase II CTD phosphorylation (MDA-MB-231/NCI-H358 cells). Description: Inhibition of RNA polymerase II CTD phosphorylation in cell western assay. The test is classed as cell-based. The following applies: 4 hours incubation, phospho RNA Pol II Ser-5 or Ser-2. On the procedure: 25000 cells (MDA-MB-231/NCI-H358) were seeded in 96 well black clear bottom plate incubated for overnight before addition of selected compound. 3 fold dilutions of selected compound diluted in DMSO starting from 10 μM, added to cells and incubated for 4 hours at 37° C., 5% CO2 incubator. Cells were washed once with 100 μl of phosphate buffered saline (sigma #P3813), then fixed with 100 μl/well of 4% Para formaldehyde for 60 min at room temperature, in dark. The cells were washed 3 times with 100 μl of wash buffer (PBS with 0.1% Triton-X-100), later blocked for 2 hours at room temperature in blocking buffer (5% BSA in PBST). Cells were stained overnight at 4° C. with Phospho RNA Pol II (S5) (Millipore #04-1572, Abcam #5131) or Phospho RNA Pol II (Ser-2), antibody (Bethyl labs #A300-654-A) in blocking buffer. Post incubation cells were washed with Delifia wash buffer (Perkin Elmer #4010-0010). Cells were treated with LANCE secondary antibodies (LANCE® Eu-W1024 perkin elmer #AD-0076 for phospho Ser-5 CTD RNA pol-II and Delfia Eu-N1 anti rabbit IgG Perkin elmer #AD0106 for phospho Ser-2 CTD RNA pol-II) for 2 hours in assay buffer (Perkin Elmer #1244-111), Cells were washed 3 times with Delfia wash buffer post incubation, Enhancement solution (Perkin Elmer #1244-105) added and incubated for 20 mins. Europium readings were taken in Victor-3 instrument. Cell normalization was done using Hoechst dye (0.5 μg/ml).
Selected compounds were screened in the above mentioned assay procedure. The EC50 values are summarised in the below table; wherein group “A” refers to an EC50 value of less than or equal to 1 μM, group “B” refers to EC50 value in range of 1 to 10 μM and group “C” refers to EC50 value of greater than 10 μM.

Where [2] appears, read: 10 μM compound, 60 min pre-incubation, 1 mM ATP.
The mark [3] stands for this setting: 60 min pre-incubation, 1 mM ATP.

Like-named read-outs stand apart in the source and are kept apart here.

Chain of CDK7/CycH/MNAT1 (P50613 whole entry): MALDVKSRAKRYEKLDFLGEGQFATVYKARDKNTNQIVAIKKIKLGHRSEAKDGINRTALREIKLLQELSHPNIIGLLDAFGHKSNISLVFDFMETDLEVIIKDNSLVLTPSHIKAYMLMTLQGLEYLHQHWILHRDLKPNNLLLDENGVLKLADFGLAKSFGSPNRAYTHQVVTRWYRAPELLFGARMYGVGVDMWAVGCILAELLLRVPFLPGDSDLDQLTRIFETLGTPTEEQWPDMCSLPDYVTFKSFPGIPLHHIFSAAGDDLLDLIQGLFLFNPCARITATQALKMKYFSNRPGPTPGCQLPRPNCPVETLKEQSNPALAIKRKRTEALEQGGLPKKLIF
Chain of CDK7/CycH/MNAT1 (P51946 whole entry partner): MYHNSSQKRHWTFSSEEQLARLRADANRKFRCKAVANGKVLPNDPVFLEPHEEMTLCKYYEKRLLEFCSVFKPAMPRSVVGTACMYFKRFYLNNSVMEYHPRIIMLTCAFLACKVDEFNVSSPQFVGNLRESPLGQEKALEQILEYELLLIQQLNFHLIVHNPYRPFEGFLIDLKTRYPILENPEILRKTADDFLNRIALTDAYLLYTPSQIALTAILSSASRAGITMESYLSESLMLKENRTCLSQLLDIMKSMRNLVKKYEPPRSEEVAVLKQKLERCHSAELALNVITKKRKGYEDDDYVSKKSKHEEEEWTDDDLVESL
Chain of CDK7/CycH/MNAT1 (P51948 whole entry partner): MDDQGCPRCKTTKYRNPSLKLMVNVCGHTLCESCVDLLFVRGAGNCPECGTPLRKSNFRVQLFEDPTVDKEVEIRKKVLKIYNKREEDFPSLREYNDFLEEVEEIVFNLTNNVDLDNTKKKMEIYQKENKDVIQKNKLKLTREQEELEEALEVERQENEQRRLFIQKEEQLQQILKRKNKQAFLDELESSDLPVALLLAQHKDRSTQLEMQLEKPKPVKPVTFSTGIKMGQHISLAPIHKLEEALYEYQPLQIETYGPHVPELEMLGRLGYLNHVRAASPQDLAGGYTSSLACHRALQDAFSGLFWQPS

As to `C=CC(=O)N1CCC(C(=O)Nc2cccc(CNc3nc(NC4CCOCC4)nc4c(C(C)C)cnn34)c2)C1` (single isomer, unassigned) [Compound 5, 1-acryloyl-N-(3-(((8-isopropyl-2-((tetrahydro-2H-pyran-4-yl)amino)pyrazolo[1,5-a][1,3,5]triazin-4-yl)amino)methyl)phenyl)pyrrolidine-3-carboxamide], at CDK7/CycH/MNAT1 (setting [2]), the inhibition at 10 µM worked out at 94%. In addition, on CDK7/CycH/MNAT1 (setting [3]), the concentration for half-maximal inhibition (IC50) is less than 0.3 µM. The same compound yielded a concentration giving a half-maximal response (EC50) in test [1] of 1 to 10 µM.
`C=CC(=O)N1CCC(C(=O)Nc2cccc(CNc3nc(NC4CCOCC4)nc4c(C(C)C)cnn34)c2)C1` (single isomer, unassigned) [Compound 6, 1-acryloyl-N-(3-(((8-isopropyl-2-((tetrahydro-2H-pyran-4-yl)amino)pyrazolo[1,5-a][1,3,5]triazin-4-yl)amino)methyl)phenyl)pyrrolidine-3-carboxamide]: on CDK7/CycH/MNAT1 (setting [2]), the “% inhibition @ 10 μM” value is on record as 91%. For the same compound, at CDK7/CycH/MNAT1 (setting [3]), the 50% inhibitory concentration (IC50) is less than 0.3 µM. Further, in test [1], the EC50 is 1 to 10 µM.
Take `C=CC(=O)N1CCC(C(=O)Nc2cccc(CNc3nc(NC4CCCC(O)C4)nc4c(C(C)C)cnn34)c2)C1` (single isomer, unassigned) [Compound 13, 1-acryloyl-N-(3-(((2-((3-hydroxycyclohexyl)amino)-8-isopropylpyrazolo[1,5-a][1,3,5]triazin-4-yl)amino)methyl)phenyl)pyrrolidine-3-carboxamide]: the “% inhibition @ 10 μM” value on CDK7/CycH/MNAT1 (setting [2]) worked out at 93%. The IC50 at CDK7/CycH/MNAT1 (setting [3]) lay in the range of 0.3 to 1 µM. This compound returned an EC50 in test [1] of 1 to 10 µM.
In the case of `C=CC(=O)N1CCC(C(=O)Nc2cccc(CNc3nc(OC4CCN(C)CC4)nc4c(C(C)C)cnn34)c2)C1` (single isomer, unassigned) [Compound 109, 1-acryloyl-N-(3-(((8-isopropyl-2-((1-methylpiperidin-4-yl)oxy)pyrazolo[1,5-a][1,3,5]triazin-4-yl)amino)methyl)phenyl)pyrrolidine-3-carboxamide], the inhibition at 10 µM on CDK7/CycH/MNAT1 (setting [2]) is 98%. In addition, the IC50 at CDK7/CycH/MNAT1 (setting [3]) was less than 0.3 µM. Moreover, in test [1], the 50% effective concentration (EC50) lay within 1 to 10 µM.
In the case of `C=CC(=O)N1CCC(C(=O)Nc2cccc(CNc3nc(OC4CCN(C)CC4)nc4c(C(C)C)cnn34)c2)C1` (single isomer, unassigned) [Compound 110, 1-acryloyl-N-(3-(((8-isopropyl-2-((1-methylpiperidin-4-yl)oxy)pyrazolo[1,5-a][1,3,5]triazin-4-yl)amino)methyl)phenyl)pyrrolidine-3-carboxamide], at CDK7/CycH/MNAT1 (setting [2]), the “% inhibition @ 10 μM” value was 99%. Also, the IC50 on CDK7/CycH/MNAT1 (setting [3]) is less than 0.3 µM. In test [1], this compound returned a half-maximal effective concentration (EC50) of 1 to 10 µM.
For the compound `C=CC(=O)N1CCCC(C(=O)Nc2cccc(CNc3nc(NC4CCOCC4)nc4c(C(C)C)cnn34)c2)C1` (stereo not shown) [Compound 1, 1-acryloyl-N-(3-(((8-isopropyl-2-((tetrahydro-2H-pyran-4-yl)amino)pyrazolo[1,5-a][1,3,5]triazin-4-yl)amino)methyl)phenyl)piperidine-3-carboxamide], at CDK7/CycH/MNAT1 (setting [2]), the inhibition at 10 µM worked out at 88%. Also, the IC50 at CDK7/CycH/MNAT1 (setting [3]) was 0.3 to 1 µM. The same compound gave an EC50 in test [1] of no more than 1 µM.
On the same counts, the results for `C=CC(=O)N1CCC1C(=O)Nc1cccc(CNc2nc(NC3CCOCC3)nc3c(C(C)C)cnn23)c1` (stereo not shown) [Compound 2, 1-acryloyl-N-(3-(((8-isopropyl-2-((tetrahydro-2H-pyran-4-yl)amino)pyrazolo[1,5-a][1,3,5]triazin-4-yl)amino)methyl)phenyl)azetidine-2-carboxamide] are 98%, less than 0.3 µM and no more than 1 µM.
Regarding `C=CC(=O)N1CCCC1C(=O)Nc1cccc(CNc2nc(NC3CCOCC3)nc3c(C(C)C)cnn23)c1` (stereo not shown) [Compound 3, 1-acryloyl-N-(3-(((8-isopropyl-2-((tetrahydro-2H-pyran-4-yl)amino)pyrazolo[1,5-a][1,3,5]triazin-4-yl)amino)methyl)phenyl)pyrrolidine-2-carboxamide], the inhibition at 10 µM at CDK7/CycH/MNAT1 (setting [2]) came out at 96%. The half-maximal inhibitory concentration (IC50) at CDK7/CycH/MNAT1 (setting [3]) is less than 0.3 µM. In test [1], the EC50 is no more than 1 µM.
With `C=CC(=O)N1CCC(C(=O)Nc2cccc(CNc3nc(NC4CCOCC4)nc4c(C(C)C)cnn34)c2)C1` (stereo not shown) [Compound 4, 1-acryloyl-N-(3-(((8-isopropyl-2-((tetrahydro-2H-pyran-4-yl)amino)pyrazolo[1,5-a][1,3,5]triazin-4-yl)amino)methyl)phenyl)pyrrolidine-3-carboxamide], the inhibition at 10 µM on CDK7/CycH/MNAT1 (setting [2]) came out at 93%. Besides, the IC50 on CDK7/CycH/MNAT1 (setting [3]) was less than 0.3 µM. Moreover, the EC50 in test [1] is no more than 1 µM.
Turning to `C=CC(=O)N1CCCC(C(=O)Nc2cccc(CNc3nc(NC4CCN(C)CC4)nc4c(C(C)C)cnn34)c2)C1` (stereo not shown) [Compound 8, 1-acryloyl-N-(3-(((8-isopropyl-2-((1-methylpiperidin-4-yl)amino)pyrazolo[1,5-a][1,3,5]triazin-4-yl)amino)methyl)phenyl)piperidine-3-carboxamide], on CDK7/CycH/MNAT1 (setting [2]), the inhibition at 10 µM was determined as 96%. The concentration for half-maximal inhibition (IC50) on CDK7/CycH/MNAT1 (setting [3]) was less than 0.3 µM. In test [1], this compound returned an EC50 of no more than 1 µM.
Turning to `C=CC(=O)N1CCC(C(=O)Nc2cccc(Nc3nc(OC4CCN(C)CC4)nc4c(C(C)C)cnn34)c2)CC1` [Compound 127, 1-acryloyl-N-(3-((8-isopropyl-2-((1-methylpiperidin-4-yl)oxy)pyrazolo[1,5-a][1,3,5]triazin-4-yl)amino)phenyl)piperidine-4-carboxamide], the inhibition at 10 µM on CDK7/CycH/MNAT1 (setting [2]) was found to be 95%. The concentration for half-maximal inhibition (IC50) on CDK7/CycH/MNAT1 (setting [3]) is less than 0.3 µM.
`CC(C)c1cnn2c(Nc3cccc(NC(=O)c4ccc(NC(=O)/C=C/CN(C)C)cc4)c3)nc(OC3CCN(C)CC3)nc12` [Compound 130, (E)-4-(4-(dimethylamino)but-2-enamido)-N-(3-((8-isopropyl-2-((1-methylpiperidin-4-yl)oxy)pyrazolo[1,5-a][1,3,5]triazin-4-yl)amino)phenyl)benzamide]: the IC50 at CDK7/CycH/MNAT1 (setting [3]) is less than 0.3 µM. In addition, at CDK7/CycH/MNAT1, the inhibition at 10 µM is 97%.
`CC(C)c1cnn2c(Nc3cccc(C(=O)NC4CCCN(C(=O)/C=C/CN(C)C)C4)c3)nc(OC3CCN(C)CC3)nc12` (stereo not shown) [Compound 133, (E)-N-(1-(4-(dimethylamino)but-2-enoyl)piperidin-3-yl)-3-((8-isopropyl-2-((1-methylpiperidin-4-yl)oxy)pyrazolo[1,5-a][1,3,5]triazin-4-yl)amino)benzamide]: the inhibition at 10 µM on CDK7/CycH/MNAT1 (setting [2]) worked out at 97%. The half-maximal inhibitory concentration (IC50) at CDK7/CycH/MNAT1 (setting [3]) is less than 0.3 µM.
For `CC(C)c1cnn2c(NCc3cccc(NC(=O)[C@H]4CC[C@@H](NC/C=C/C(=O)N(C)C)CC4)c3)nc(OC3CCN(C)CC3)nc12` [Compound 135, (1s,4s)-4-(((E)-4-(dimethylamino)-4-oxobut-2-en-1-yl)amino)-N-(3-(((8-isopropyl-2-((1-methylpiperidin-4-yl)oxy)pyrazolo[1,5-a][1,3,5]triazin-4-yl)amino)methyl)phenyl)cyclohexane-1-carboxamide], at CDK7/CycH/MNAT1 (setting [2]), the inhibition at 10 µM came out at 97%. Besides, the IC50 on CDK7/CycH/MNAT1 (setting [3]) was less than 0.3 µM.
For `C=CC(=O)N1CCC(C(=O)Nc2cccc(CNc3nc(OC)nc4c(C(C)C)cnn34)c2)CC1` [Compound 136, 1-acryloyl-N-(3-(((8-isopropyl-2-methoxypyrazolo[1,5-a][1,3,5]triazin-4-yl)amino)methyl)phenyl)piperidine-4-carboxamide], the inhibition at 10 µM at CDK7/CycH/MNAT1 (setting [2]) is 73%. Besides, the half-maximal inhibitory concentration (IC50) on CDK7/CycH/MNAT1 (setting [3]) was greater than 1 µM.
As to `CC(C)c1cnn2c(NCc3ccccc3N3CCN(C(=O)/C=C/CN(C)C)CC3)nc(NC3CCOCC3)nc12` [Compound 137, (E)-4-(dimethylamino)-1-(4-(2-(((8-isopropyl-2-((tetrahydro-2H-pyran-4-yl)amino)pyrazolo[1,5-a][1,3,5]triazin-4-yl)amino)methyl)phenyl)piperazin-1-yl)but-2-en-1-one], the inhibition at 10 µM on CDK7/CycH/MNAT1 (setting [2]) came to 99%. At CDK7/CycH/MNAT1 (setting [3]), the 50% inhibitory concentration (IC50) was less than 0.3 µM.
Regarding `CC(C)c1cnn2c(NCC3CCN(C(=O)/C=C/CN4CCCC4)CC3)nc(NC3CCOCC3)nc12` [Compound 138, (E)-1-(4-(((8-isopropyl-2-((tetrahydro-2H-pyran-4-yl)amino)pyrazolo[1,5-a][1,3,5]triazin-4-yl)amino)methyl)piperidin-1-yl)-4-(pyrrolidin-1-yl)but-2-en-1-one], at CDK7/CycH/MNAT1 (setting [2]), the inhibition at 10 µM amounted to 64%. In addition, on CDK7/CycH/MNAT1 (setting [3]), the concentration for half-maximal inhibition (IC50) is greater than 1 µM.
As for `C=CC(=O)N1CCC1C(=O)Nc1cccc(CNc2cc(NC3CCOCC3)nc3c(C(C)C)cnn23)c1` (stereo not shown) [Compound 139, 1-acryloyl-N-(3-(((3-isopropyl-5-((tetrahydro-2H-pyran-4-yl)amino)pyrazolo[1,5-a]pyrimidin-7-yl)amino)methyl)phenyl)azetidine-2-carboxamide], on CDK7/CycH/MNAT1 (setting [2]), the inhibition at 10 µM is 98%. Further, the IC50 at CDK7/CycH/MNAT1 (setting [3]) was less than 0.3 µM.

Values taken from patent US11186576B2, “Pyrazolo[1,5-A][1,3,5]triazine and pyrazolo[1,5-A]pyrimidine derivatives as CDK inhibitors” (Aurigene Discovery Technologies Limited, priority 2015, dated 2021).
